Experimental data as given in patent publication US20080248008A1, “Inhibitors of Protein Kinase a Anchoring” (priority 2004, published 2008).

What was measured:
PKA-RIα = molecular target: T1, PKA-RIα (Mus musculus, UniProt Q9DBC7); assay: Immunofluorescence of PKA-RIα at mitochondria in Y1 adrenal cells; assay type: cell-based
T1 construct: host or cells: mouse Y-1 adrenocortical cells
Description: Mouse adrenocortical Y1 cells were obtained from ATCC (Cat. No. CCL-79) and maintained in DMEM/HAM'S F-12 (Cat. No. E15-813, PAA Laboratories GmbH, Pasching, Austria) supplemented with 100 μg/ml streptomycin, 100 U/ml penicillin and 10% (v/v) fetal calf serum in a humidified atmosphere of 5% CO2 and split by trypsination at less than 80% confluence.
Immunofluorescence analysis of cells was performed as previously described (Collas, P. et al., 1996, J. Cell Biol. 135, 1715-1725). RI was detected by using an anti-RI monoclonal antibody (Transduction Laboratories) as a primary antibody at a […] and Alexa-488 as a secondary antibody (1:600, Goat anti Mouse IgGs, Molecular Probes). Immunofluorescence was performed on Y1 cells attached to collagen/fibronectin coated coverslips. Mitochondria were stained using MitoTracker Red CMXRos (Molecular Probes) in fresh medium with incubation at 37° C. for 30 min prior to cell fixation. All cells were washed in PBS, fixed with 3% paraformaldehyde and permeabilised using 0.1% Triton X-100. Proteins were blocked in 2% BSA/PBST prior to antibody labeling. […] Alternatively, fluorescently labeled cells were examined using a Leica TCS SP1 confocal fluorescence microscope (Leica, Heidelberg, Germany) equipped with an Ar (488 nm) and two He/Ne (543 and 633 nm) laser lines. […]

RI = molecular target: T2, RI (Homo sapiens, UniProt P10644); assay: Co-immunoprecipitation with RI in transfected HEK293 cells; assay type: cell-based; conditions: HEK293 cells transfected with GFP-fusion constructs
T2 construct: endogenous in cells; host or cells: HEK293 (transfected only with GFP-peptide constructs)
Description: HEK293 cells at […] were transfected with ten μg of plasmid DNA (GFP, GFP-MEME3 or GFP-Scrambled MEME3) by using the CaCl2 method. Cells were lysed after 30 hours in lysis buffer (20 mM Hepes, pH 7.5/150 mM NaCl/1 mM EDTA/1% Triton X-100) with protease inhibitors (Complete Mini, EDTA-free tablets, Roche).
Immunoblot analysis. Immunocomplexes and lipid raft fractions were analysed on a 10, 15% or 4-20% PAGE and blotted onto PVDF membranes. The filters were blocked in 5% non-fat dry milk in TBST for 30 minutes at RT, incubated 1 hour at RT (or overnight at 4° C.) with primary antibodies, washed four times 5 minutes in TBST with 0.1% Tween-20 and incubated with a horseradish-peroxidase-conjugated secondary antibody. Blots were developed by using Supersignal West Dura Extended Duration Substrate or Supersignal West Pico substrate (Pierce).
Antibodies. RI or RII were immunoprecipitated with polyclonal antibodies against human RI or human RII at a 3 μg/ml dilution (Santa Cruz Biotechnology). MEME3 or scrambled peptide was immunoprecipitated with 1.5 μl of anti-GFP antiserum (Invitrogen). […]
Immunocomplexes were analysed on 10% PAGE (B and C) or 15% PAGE (D) and subjected to Western blotting using anti-GFP, anti-RI or anti-RII as indicated and blotted onto PVDF membranes. […]

| Molecule | displacement of PKA-RIα from mitochondria (PKA-RIα) | co-precipitation with RI (RI) |
| --- | --- | --- |
| LEQYANQLADQIIKEATERRRRRRRRRrr [MEME3-Arg11] | displaced from mitochondria | – |
| CC[C@H](C)[C@H](NC(=O)[C@H](CCC(N)=O)NC(=O)[C@H](CC(=O)O)NC(=O)[C@H](C)NC(=O)[C@H](CC(C)C)NC(=O)[C@H](CCC(N)=O)NC(=O)[C@H](CC(N)=O)NC(=O)[C@H](C)NC(=O)[C@H](Cc1ccc(O)cc1)NC(=O)[C@H](CCC(N)=O)NC(=O)[C@H](CCC(=O)O)NC(=O)[C@@H](N)CC(C)C)C(=O)N[C@H](C(=O)N[C@@H](CCCCN)C(=O)N[C@@H](CCC(=O)O)C(=O)N[C@@H](C)C(=O)N[C@H](C(=O)N[C@@H](CCC(=O)O)C(=O)N[C@@H](CCCCNC(=O)c1ccc2c(c1)C(=O)OC21c2ccc(O)cc2Oc2cc(O)ccc21)C(N)=O)[C@@H](C)O)[C@@H](C)CC [MEME3] | – | Co-precipitation of MEME3 with RI |
| IEKELAQQYQNADAITLE [SM3, scrambled MEME3 negative control peptide, reference compound] | – | did not co-precipitate with RI |
